# Assay results as given in patent publication US20110166121A1 (LG LIFE SCIENCES LTD., priority 2008, published 2011).
# Tested on: Human platelet aggregation caused by ADP
# Experiment: Inhibition of ADP-induced platelet aggregation (Mimic-human PRP)
# Type: cell-based
# Settings: 20 μM ADP, human platelet concentrate diluted with PPP, absorption at 595 nm
# Method in brief: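 Ki came from non-linear sigmoidal fits of inhibition, measured as the 3-min rise in absorbance at 595 nm after 20 μM ADP, relative to 0/20 μM ADP controls. Platelets (3–4×10^8/mL in PPP-diluted human PRP) were exposed to 0.01–30 μM compound for 20 min at room temperature beforehand.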
row,SMILES,Ki [nM]
1,"CCCc1cc2c(N3CCn4c(nnc4C(F)(F)F)C3)nc(Nc3cc[nH]n3)nc2s1 [Example 9-53, [6-Propyl-4-(3-trifluoromethyl-5,6-dihydro-8H-[1,2,4]triazolo[4,3-a]pyrazin-7-yl)-thieno[2,3-d]pyrimidin-2-yl]-(1H-pyrazol-3-yl)-amine]",31
2,"CCCc1cc2c(N3CCn4c(nnc4C(F)(F)F)C3)nc(-n3ccc(NC(C)=O)n3)nc2s1 [Example 9-54, N-{1-[6-Propyl-4-(3-trifluoromethyl-5,6-dihydro-8H-[1,2,4]triazolo[4,3-a]pyrazin-7-yl)-thieno[2,3-d]pyrimidin-2-yl]-1H-pyrazol-3-yl}-acetamide]",130
3,"CCCc1cc2c(N3CCn4c(nnc4C(F)(F)F)C3)nc(-n3cc(C)cn3)nc2s1 [Example 9-55, 7-[2-(4-Methyl-pyrazol-1-yl)-6-propyl-thieno[2,3-d]pyrimidin-4-yl]-3-trifluoromethyl-5,6,7,8-tetrahydro-[1,2,4]triazolo[4,3-a]pyrazine]",340
4,"CCCc1cc2c(N3CCn4c(nnc4C(F)(F)F)C3)nc(-n3cc(N)cn3)nc2s1 [Example 9-56, 1-[6-Propyl-4-(3-trifluoromethyl-5,6-dihydro-8H-[1,2,4]triazolo[4,3-a]pyrazin-7-yl)-thieno[2,3-d]pyrimidin-2-yl]-1H-pyrazol-4-ylamine]",30
5,"CCCc1cc2c(N3CCn4c(nnc4C(F)(F)F)C3)nc(-n3cc(NC(C)=O)cn3)nc2s1 [Example 9-57, N-{1-[6-Propyl-4-(3-trifluoromethyl-5,6-dihydro-8H-[1,2,4]triazolo[4,3-a]pyrazin-7-yl)-thieno[2,3-d]pyrimidin-2-yl]-1H-pyrazol-4-yl}-acetamide]",410
6,"CCCc1cc2c(N3CCn4c(nnc4C(F)(F)F)C3)nc(Nc3cn[nH]c3)nc2s1 [Example 9-58, [6-Propyl-4-(3-trifluoromethyl-5,6-dihydro-8H-[1,2,4]triazolo[4,3-a]pyrazin-7-yl)-thieno[2,3-d]pyrimidin-2-yl]-(1H-pyrazol-4-yl)-amine]",22
7,"CCCc1cc2c(N3CCn4c(nnc4C(F)(F)F)C3=O)nc(OCCC(=O)O)nc2s1 [Example 9-59, 3-[4-(8-Oxo-3-trifluoromethyl-5,6-dihydro-8H-[1,2,4]triazolo[4,3-a]pyrazin-7-yl)-6-propyl-thieno[2,3-d]pyrimidin-2-yloxy]-propionic acid]",> 10000
8,"CCC(=O)c1cc2c(N3CCn4c(nnc4C(F)(F)F)C3)nc(OCCC(=O)O)nc2s1 [Example 9-61, 3-[6-Propionyl-4-(3-trifluoromethyl-5,6-dihydro-8H-[1,2,4]triazolo[4,3-a]pyrazin-7-yl)-thieno[2,3-d]pyrimidin-2-yloxy]-propionic acid]",> 10000
9,"CCCCNC(=O)[C@H]1CCN(c2nc(N3CCn4c(nnc4C(F)(F)F)C3)c3cc(CCC)sc3n2)C1 [Example 9-62, (S)-1-[6-Propyl-4-(3-trifluoromethyl-5,6-dihydro-8H-[1,2,4]triazolo[4,3-a]pyrazin-7-yl)-thieno[2,3-d]pyrimidin-2-yl]-pyrrolidine-3-carboxylic acid butylamide]",400
10,"CCCCN(C)C(=O)[C@H]1CCN(c2nc(N3CCn4c(nnc4C(F)(F)F)C3)c3cc(CCC)sc3n2)C1 [Example 9-63, (S)-1-[6-Propyl-4-(3-trifluoromethyl-5,6-dihydro-8H-[1,2,4]triazolo[4,3-a]pyrazin-7-yl)-thieno[2,3-d]pyrimidin-2-yl]-pyrrolidine-3-carboxylic acid butyl-methyl-amide]",2000
11,"CCCc1cc2c(N3CCn4c(nnc4C(F)(F)F)C3)nc(N3CC[C@H](C(=O)NC4CCCC4)C3)nc2s1 [Example 9-64, (S)-1-[6-Propyl-4-(3-trifluoromethyl-5,6-dihydro-8H-[1,2,4]triazolo[4,3-a]pyrazin7-yl)-thieno[2,3-d]pyrimidin-2-yl]-pyrrolidine-3-carboxylic acid cyclopentylamide]",1400
12,CCCc1cc2c(N3CCn4c(nnc4C(F)(F)F)C3)nc(N3CC[C@H](C(=O)N(C)C4CCCCC4)C3)nc2s1 [Example 9-65],9300
